Test results as given in PubChem BioAssay AID1963825 (Molecular Pharmacology Branch, DTP, NCI, 2024).
“And” between values parts separate entries of the source, which are not always exact repeats. Equal entries are not always repeated.

Assay: Anticancer human tumor 997537-175-T-J1-PDC patient-derived colon adenocarcinoma cell line growth inhibition [POLQ]
Conditions: 997537-175-T-J1-PDC complex spheroid viability, combination with POLQ inhibitors; for viability, T/C: stronger effect = lower value
Description: Multicellular complex tumor spheroid response to Polymerase (POL) inhibitors (novobiocin, ART-558, RP6685) in combination with a variety of drugs and investigational agents in selected tumor cell lines
The POL inhibitors (novobiocin, ART-558, and RP6685) were evaluated both individually and in combination with standard of care and investigational anticancer small molecules within a complex spheroid model of solid tumors. . Complex spheroids include a stromal component modeled by human endothelial cells (HUVEC) and fibroblasts modeled by human mesenchymal stem cells (MSCs). The concentration ranges selected for each drug and investigational agent were based upon clinically achievable concentrations if the clinical Cmax of the agent was known.
Compounds. The drugs and investigational agents: novobiocin (NSC847541), ART-558 (NSC835418), RP-6685 (NSC848927), peposertib (NSC802822), ceralasertib (NSC780249), elimusertib (NSC800525), camonsertib (NSC841442), AZD-1390 (NSC803789), olaparib (NSC753686), talazoparib (NSC767125), rucaparib (NSC756644), sotorasib (NSC818433), MRTX-1133 (NSC836407), SN-38 (NSC673596), topotecan (NSC609699), epotoside (NSC141540), doxorubicin (NSC123127), gemcitabine (NSC613327), 5-fluorouracil (NSC19893), paclitaxel (NSC125973), vemurafenib (NSC761431), MSA-2 (NSC828583), SN-011 (NSC837082), adavosertib (NSC754352), prexasertib (NSC758257), carboplatin (NSC241240) and oxaliplatin (NSC266046), were obtained from the National Cancer Institute (NCI) Developmental Therapeutics Program Chemical Repository (21). The FDA-approved anticancer drug set is available from the Developmental Therapeutics Program at https://dtp.cancer.gov/organization/dscb/obtaining/. […] The stock solutions were prepared in dimethyl sulfoxide (DMSO, Sigma-Aldrich, St. Louis, MO, cat. D2650), except for the platinum compounds which were prepared in saline (Quality Biological, Gaithersburg, MD, cat. 114-055-101), at 800-fold the tested concentration and stored at -70 degrees C prior to their use. All drugs and investigational agents were tested over a range starting from a high concentration at or near the clinical Cmax and decreasing in half-log increments. If the clinical Cmax for an agent had not been determined, the highest concentration tested was 10 microM, except for SN-38, which was tested at a high concentration of 1 microM.
Cell Culture. All cells were maintained in an incubator at 37 degrees C and 5% CO2 with 95% humidity. The PDC lines were cultured according to standard operating procedures established by the NCI PDMR (https://pdmr.cancer.gov). Table 3 of the manuscript, lists the cell lines along with the number of the three cell types plated to form the mct-spheroids and media for tumor cell growth. After thawing, all PDC lines, except 997537-175-T-J1-PDC and 415267-285-R-J2-PDC, were cultured in Matrigel-coated flasks prepared with a working solution of 1X Ham's F-12 nutrient mix, without supplementation (Thermo Fisher Scientific, cat. 11765054), 100 U/mL penicillin-streptomycin (Thermo Fisher Scientific, cat. 15140122), and 2.5% Matrigel (Corning Inc., Corning, NY, cat. 354248) for the first three passages. The two PDC lines 997537-175-T-J1-PDC and 415267-285-R-J2-PDC were cultured on uncoated flasks. The 857933-349-R-J2-PDC line was cultured in 6C/Colon 1B media containing advanced DMEM/F-12 (Thermo Fisher Scientific, cat. 12634028), 10 mM HEPES (Thermo Fisher Scientific, cat. 15630080), 1X GlutaMAX supplement (Thermo Fisher Scientific, cat. 35050061), 0.1 mg/mL primocin (InvivoGen, San Diego, CA, cat. ant-pm-2), 10% defined fetal bovine serum, heat inactivated (HyClone Laboratories Inc., Logan, UT, cat. SH30070.03HI), 50% L-WRN conditioned media (ATCC, cat. CRL-3276), 1.25 mM N-Acetyl-L-cysteine (Sigma-Aldrich, cat. A9165), 10 mM nicotinamide (Sigma-Aldrich, cat. N0636), 1X B-27 supplement (Thermo Fisher Scientific, cat. 17504044), 1X N-2 supplement (Thermo Fisher Scientific, cat. […]
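Also: luminescence signal used as a surrogate for viable cells; spheroids exposed to drugs for seven days before readout.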

CCc1cc2c(N3CCc4c(cc(Cn5ccnc5)cc4-c4cn(C)nc4C(F)(F)F)C3=O)cc(C)nc2c(OC)n1
viability, T/C (compound 0.0316 µM): 90.5% and 98.7% and 107%
viability, T/C (compound 0.1 µM): 95.7% and 82% and 107%
viability, T/C (compound 0.316 µM): 90.7% and 71.5% and 94.3%
viability, T/C (compound 1 µM): 78.7% and 91.3% and 92.2%
viability, T/C (compound 3.16 µM): 69.9% and 86.2% and 67.7%
viability, T/C (compound 10 µM): 58% and 61.9% and 41.5%
IC50 (curve of compound): > 10 µM and 6.97 µM

COc1cccc(OCCCN)c1-c1cc(Nc2cnc(C#N)cn2)n[nH]1
viability, T/C (compound 0.00316 µM): 96.8% and 107% and 96.1%
viability, T/C (compound 0.01 µM): 106% and 98.4% and 92.4%
viability, T/C (compound 0.0316 µM): 54.1% and 72% and 72.3%
viability, T/C (compound 0.1 µM): 52.4% and 57.1% and 43.6%
viability, T/C (compound 0.316 µM): 24.1% and 36.5% and 25.2%
viability, T/C (compound 1 µM): 25.2% and 27.3% and 13.4%
IC50 (curve of compound): 0.0658 µM and 0.135 µM and 0.0801 µM

CC1COCCN1c1cc(C2(S(C)(=N)=O)CC2)nc(-c2ccnc3[nH]ccc23)n1 (configuration not stated) + COC1C(OC(N)=O)C(O)C(Oc2ccc3c(O)c(NC(=O)c4ccc(O)c(CC=C(C)C)c4)c(=O)oc3c2C)OC1(C)C
IC50 (curve of first compound, second compound 0.0316 µM): > 10 µM
IC50 (curve of first compound, second compound 0.1 µM): > 10 µM
IC50 (curve of first compound, second compound 0.316 µM): > 10 µM
IC50 (curve of first compound, second compound 1 µM): > 10 µM
IC50 (curve of first compound, second compound 3.16 µM): > 10 µM
IC50 (curve of first compound, second compound 10 µM): > 10 µM
viability, T/C (second compound 0.0316 µM, first compound 0.0316 µM): 113%
viability, T/C (second compound 0.0316 µM, first compound 0.1 µM): 114%
viability, T/C (second compound 0.0316 µM, first compound 0.316 µM): 84.4%
viability, T/C (second compound 0.0316 µM, first compound 1 µM): 85.4%
viability, T/C (second compound 0.0316 µM, first compound 3.16 µM): 90%
viability, T/C (second compound 0.0316 µM, first compound 10 µM): 49.9%
viability, T/C (second compound 0.1 µM, first compound 0.0316 µM): 94.5%
viability, T/C (second compound 0.1 µM, first compound 0.1 µM): 102%
viability, T/C (second compound 0.1 µM, first compound 0.316 µM): 82.7%
viability, T/C (second compound 0.1 µM, first compound 1 µM): 72.1%
viability, T/C (second compound 0.1 µM, first compound 3.16 µM): 80.3%
viability, T/C (second compound 0.1 µM, first compound 10 µM): 60.5%
viability, T/C (second compound 0.316 µM, first compound 0.0316 µM): 99.8%
viability, T/C (second compound 0.316 µM, first compound 0.1 µM): 112%
viability, T/C (second compound 0.316 µM, first compound 0.316 µM): 105%
viability, T/C (second compound 0.316 µM, first compound 1 µM): 94.2%
viability, T/C (second compound 0.316 µM, first compound 3.16 µM): 77.7%
viability, T/C (second compound 0.316 µM, first compound 10 µM): 54.7%
viability, T/C (second compound 1 µM, first compound 0.0316 µM): 110%
viability, T/C (second compound 1 µM, first compound 0.1 µM): 92.7%
viability, T/C (second compound 1 µM, first compound 0.316 µM): 102%
viability, T/C (second compound 1 µM, first compound 1 µM): 106%
viability, T/C (second compound 1 µM, first compound 3.16 µM): 67%
viability, T/C (second compound 1 µM, first compound 10 µM): 56.4%
viability, T/C (second compound 3.16 µM, first compound 0.0316 µM): 109%
viability, T/C (second compound 3.16 µM, first compound 0.1 µM): 112%
viability, T/C (second compound 3.16 µM, first compound 0.316 µM): 106%
viability, T/C (second compound 3.16 µM, first compound 1 µM): 94.3%
viability, T/C (second compound 3.16 µM, first compound 3.16 µM): 79.2%
viability, T/C (second compound 3.16 µM, first compound 10 µM): 66.6%
viability, T/C (second compound 10 µM, first compound 0.0316 µM): 109%
viability, T/C (second compound 10 µM, first compound 0.1 µM): 95.7%
viability, T/C (second compound 10 µM, first compound 0.316 µM): 98.9%
viability, T/C (second compound 10 µM, first compound 1 µM): 66.5%
viability, T/C (second compound 10 µM, first compound 3.16 µM): 71.6%
viability, T/C (second compound 10 µM, first compound 10 µM): 62.8%

CCc1c2c(nc3ccc(O)cc13)-c1cc3c(c(=O)n1C2)COC(=O)[C@]3(O)CC
viability, T/C (compound 0.00316 µM): 68.9% and 81% and 97.3%
viability, T/C (compound 0.01 µM): 63.4% and 64.7% and 67%
viability, T/C (compound 0.0316 µM): 35.3% and 40.2% and 35.2%
viability, T/C (compound 0.1 µM): 19.1% and 17.6% and 15.7%
viability, T/C (compound 0.316 µM): 5.98% and 6.37% and 8.27%
viability, T/C (compound 1 µM): 5.57% and 4.62% and 6.01%
IC50 (curve of compound): 0.0172 µM and 0.0199 µM and 0.0184 µM

CC1COCCN1c1cc(C2(S(C)(=N)=O)CC2)nc(-c2ccnc3[nH]ccc23)n1 (configuration not stated)
viability, T/C (compound 0.0316 µM): 92.8% and 97.8% and 110%
viability, T/C (compound 0.1 µM): 99.5% and 101% and 102%
viability, T/C (compound 0.316 µM): 101% and 84.7% and 82.3%
viability, T/C (compound 1 µM): 91.7% and 86.5% and 92.7%
viability, T/C (compound 3.16 µM): 66% and 59.8% and 74.8%
viability, T/C (compound 10 µM): 49.9% and 58.9% and 53.6%
IC50 (curve of compound): 9.98 µM and > 10 µM

O=c1[nH]cc(F)c(=O)[nH]1
viability, T/C (compound 0.0316 µM): 86.3% and 95% and 102%
viability, T/C (compound 0.1 µM): 99.9% and 91.8% and 89.1%
viability, T/C (compound 0.316 µM): 108% and 90% and 106%
viability, T/C (compound 1 µM): 92.9% and 96.2% and 106%
viability, T/C (compound 3.16 µM): 102% and 92% and 105%
viability, T/C (compound 10 µM): 83.8% and 76.2% and 81.4%
IC50 (curve of compound): > 10 µM
